As usually defined, the IC50 is the concentration at which inhibition is half-maximal.

For this assay, the species on record is Homo sapiens. Briefly: Concentration required to inhibit collagen-induced platelet aggregation in human platelet rich plasma (PRP). The class given is functional.
Molecule `CC(C)(/C=C/C(O)c1ccc(C(=N)N)cc1)C(=O)N1CCC(CC(=O)O)CC1` (configuration not stated) yielded an IC50 of 7600 nM.
With `C#CCOC(/C=C/c1ccc(C(=N)N)cc1)C(C)(C)C(=O)N1CCC(CC(=O)O)CC1` (configuration not stated), the IC50 came to 270 nM.
`COC(/C=C/c1ccc(C(=N)N)cc1)C(C)(C)C(=O)N1CCC(CC(=O)O)CC1` (configuration not stated) displayed an IC50 of 250 nM.
Regarding `CC(C)(C(=O)/C=C/c1ccc(C(=N)N)cc1)C(=O)N1CCC(CC(=O)O)CC1`, inhibition was half-maximal at 3500 nM (IC50). Against the preceding molecule, the IC50 is about 14-fold higher.
For `CC(C)(/C=C/C(=O)c1ccc(C(=N)N)cc1)C(=O)N1CCC(CC(=O)O)CC1`, the IC50 worked out at 210 nM.
Take `CC(C)(CCC(=O)c1ccc(C(=N)N)cc1)C(=O)N1CCC(CC(=O)O)CC1`: the IC50 turned out to be 630 nM.
The value for `CCCCCCOC(/C=C/c1ccc(C(=N)N)cc1)C(C)(C)C(=O)N1CCC(CC(=O)O)CC1` (configuration not stated) was 1600 nM.
With `CC(C)(C(=O)N1CCC(CC(=O)O)CC1)/C(O)=C/C(=O)c1ccc(C(=N)N)cc1` the figure was 600000 nM; with `CCOC(/C=C/c1ccc(C(=N)N)cc1)C(C)(C)C(=O)N1CCC(CC(=O)O)CC1` (configuration not stated), 260 nM; with `COC(CCc1ccc(C(=N)N)cc1)C(C)(C)C(=O)N1CCC(CC(=O)O)CC1` (configuration not stated), 480 nM.
With `CC(C)(C(=O)N1CCC(CC(=O)O)CC1)C(/C=C/c1ccc(C(=N)N)cc1)OCc1ccccc1` (configuration not stated), the IC50 is 730 nM.
The value for `CC(C)(C(=O)N1CCC(CC(=O)O)CC1)C(O)/C=C/c1ccc(C(=N)N)cc1` (configuration not stated) was 600 nM.

Source of the values: ChEMBL document CHEMBL1151587, “Development of new non-peptide GPIIb/IIIa antagonists, NSL-95315 and NSL-95317, isosteres of NSL-95300” (Bioorg Med Chem Lett, 1997).
